Results on ten compounds are retold here after PMC8707212, “Immunosuppressive Sesquiterpenoids from the Edible Mushroom Craterellus odoratus” (Journal of Fungi, 2021).

One series concerns B lymphocyte cells. Description: LPS-induced B-cell proliferation ([3H]-thymidine uptake). The series is classed as cell-based, BALB/c mice. As to conditions: Mus musculus, spleen cells stimulated with 10 µg/mL LPS. The protocol:
(§1) Female BALB/c mice were sacrificed by cervical dislocation, and their spleens were aseptically removed. After cell debris, mononuclear cell suspensions were prepared, and clumps were removed. Erythrocytes were depleted with ammonium chloride buffer solution. Lymphocytes were washed and resuspended in RPMI 1640 medium supplemented with 10% FBS, penicillin (100 U/mL), and streptomycin ([…]).
As mentioned above, fresh spleen cells were obtained from female BALB/c mice (18–20 g). Similarly, the 5 × 10^5 spleen cells were cultured at the same conditions. The cultures, with or without various concentrations of compounds, were stimulated with 5 µg/mL of concanavalin A (ConA) to induce the T cells’ proliferative response or 10 µg/mL of lipopolysaccharide (LPS) to induce B cells’ proliferative response. Proliferation was assessed in terms of uptake of [^3H]-thymidine during 8 h of pulsing with 25 µL/well of [^3H]-thymidine, then cells will be harvested onto glass fiber filters. A Beta scintillation counter was used to count the incorporated radioactivity. Cells treated without any stimuli were used as a negative control. The immunosuppressive activity was expressed as the concentration of the compound that inhibited T or B cell proliferation to 50% (IC50) of the control value. Both the cytotoxicity and proliferation assessment were repeated twice.

Series [1] is described as follows: Cytotoxicity on mouse spleen cells (CCK-8 assay). As to conditions: female, fresh mouse spleen cells (splenic lymphocytes), BALB/c mouse spleen cells. The series is classed as cell-based, BALB/c mice. The protocol: as §1
We used the Cell Counting Kit-8 (CCK-8) assay to test cytotoxicity. In brief, fresh spleen cells were obtained from female BALB/c mice (18–20 g). Spleen cells (1 × 10^6 cells) were seeded in triplicate in 96-well flat plates and cultured at 37 °C for 48 h, with or without compounds of various concentrations, in a humidified and 5% CO2-containing incubator. A certain amount of CCK-8 was added to each well during the last 8–10 h of culture. At the end of the culture, we use a microplate reader (Bio-Rad 650) to measure the OD value at 450 nm. […] Only the OD value of culture medium is used as background. The cytotoxicity of compounds was expressed as the concentration of the compounds that reduces cell viability to 50% (CC50).

The next series deals with T lymphocyte cells. Description: ConA-induced T-cell proliferation ([3H]-thymidine uptake). The series is classed as cell-based, BALB/c mice. As to conditions: Mus musculus, spleen cells stimulated with 5 µg/mL ConA, read-out: Con A-Induced T-Cell Proliferation IC50. The protocol:
as §1

As to `CC(=CCCC1(C)C2CCC(CO)(C2)C1O)C(=O)O` (stereo not shown) [Compound 3, Craterodoratin C], the melting point fell in the range of 180.7 to 182.4 °C. In the series with B lymphocyte cells, this compound showed an IC50 of 12.6 ± 1.14 µM. In series [1], this compound showed a CC50 at 48 h of over 40 µM.
For `CC(=CC(O)CC12COC3(CO)CCC1CC32)C(=O)O` (stereo not shown) [Compound 10, Craterodoratin J], in the series on B lymphocyte cells, the IC50 was found to be 19.4 ± 0.48 µM. In addition, in series [1], the CC50 at 48 h is over 40 µM.
`CC(=CC(=O)CC12C(=O)OC3(C)CCC1CC32)C(=O)O` (stereo not shown) [Compound 12, Craterodoratin L] showed an IC50 in the series on B lymphocyte cells of 13.7 ± 0.65 µM. The same compound yielded a CC50 at 48 h in series [1] of over 40 µM.
Compound `CC(=CCCC1(C)C2CCC(CO)C1C2)C(=O)O` (stereo not shown) [Compound 13, Craterodoratin M] registered an IC50 in the series on B lymphocyte cells of 15.4 ± 1.03 µM. Moreover, the CC50 at 48 h in series [1] was over 40 µM.
On to `CC(=CCCC1(C)C2CCC(CO)C1(O)C2)C(=O)O` (stereo not shown) [Compound 14, Craterodoratin N], for which the IC50 in the series with B lymphocyte cells is 13.3 ± 1.29 µM. Also, the CC50 at 48 h in series [1] was over 40 µM.
In the same order, the values of `C=C1CCC2(O)CC1C2(C)CCC=C(C)C(=O)O` (stereo not shown) [Compound 15, Craterodoratin O] are 17.1 ± 1.14 µM and over 40 µM.
On to `C=C1CCC2CC1C2(COC(C)=O)CC(O)C=C(C)C(=O)O` (stereo not shown) [Compound 17, Craterodoratin Q], for which, in series [1], the CC50 at 48 h was over 40 µM. For the same compound, the IC50 in the series on T lymphocyte cells is 31.5 ± 1.79 µM.
For the compound `C=C1C2CN(CC(=O)O)CC3C2C(C(C)C)CCC13C` (stereo not shown) [Compound 19, Craterodoratin S], the IC50 in the series with B lymphocyte cells came to 22.7 ± 1.67 µM. In series [1], this compound showed a CC50 at 48 h of over 40 µM.
As to `CC(=CC(O)CC12COC3(C)CCC1CC32)C(=O)O` (stereo not shown) [Compound 20, massarinolin B], the results for the IC50 in the series with B lymphocyte cells and in the series on T lymphocyte cells were 0.67 ± 0.004 µM and 0.98 ± 0.01 µM, respectively. Besides, in series [1], the CC50 at 48 h is over 40 µM.
Turning to `CC(=CC1CC23C4CCC(C)(OC2O1)C3C4)C(=O)O` (stereo not shown) [Compound 23, donacinoic acid A], the IC50 in the series with B lymphocyte cells amounted to 13.2 ± 0.97 µM. Also, the CC50 at 48 h in series [1] is over 40 µM.
